Assay results as given in PMC5640562, “Synthesis and anticancer activity of novel quinazolinone-based rhodanines” (Chemistry Central Journal, 2017).

What was measured:
HT-1080 cells [1] = experiment: MTT cytotoxicity assay, HT-1080 fibrosarcoma cells; type: cell-based, human; details: 3 days incubation, mean of three independent experiments (± standard deviation)
Protocol: (§1) The compounds were tested for their cytotoxic activity on a solid tumor cell line, i.e. HT-1080 originating from a fibrosarcoma (American Type Culture Collection; ATCC, Rockville, MD, USA), and on two leukemia cell lines, i.e. the HL-60 human promyelocytic leukemia (European Collection of Animal Cell Cultures; ECACC, Salisbury, UK) and the K-562 human chronic myelogenous leukemia (ATCC). Furthermore, the human skin fibroblast strain AG01523 (Coriell Institute for Medical Research, Camden, NJ, USA) was also used as normal control. Adherent cells were routinely cultured in Dulbecco’s […] (DMEM), and leukemia cells in RPMI 1640, in an environment of 5% CO2, 85% humidity, and 37 °C. All media were supplemented with penicillin (100 U/ml), streptomycin (100 μg/ml) (media and antibiotics from Biochrom KG, Berlin, Germany), and 10% fetal bovine serum (Life Technologies Europe BV, Thessaloniki, Greece). Adherent cells were subcultured using a trypsin (0.25%; Life Technologies Europe BV)—citrate (0.30%; Sigma, St. Louis, MO, USA) solution. The cytotoxicity assay was performed by a modification of the MTT method. Briefly, the cells were plated in flat-bottomed 96-well microplates at a density of 5000 cells/well, and incubated overnight before the addition of serial dilutions of the test compounds. The cells were incubated with the compounds or the corresponding vehicle (DMSO) concentrations for 3 days. Then, the medium was replaced with MTT (Sigma) in serum-free, phenol-red-free DMEM (1 mg/ml). After incubation for 4 h, the MTT formazan was solubilized in 2-propanol, and the optical density was measured using a FLUOstar Optima (BMG Labtech, Ortenberg, Germany) microplate reader at a wavelength of 550 nm (reference wavelength 660 nm). Doxorubicin hydrochloride (Sigma) was included in the experiments as positive control. The results represent the mean of three independent experiments and are expressed as IC50 [42].

HT-1080 cells [2] = experiment: Flow cytometric analysis of DNA content (cell cycle phase distribution); type: cell-based, human; details: 48 h, flow cytometry of DNA content (not shown)
K-562 cells = experiment: MTT cytotoxicity assay, K-562 chronic myelogenous leukemia cells; type: cell-based, human; details: 3 days incubation, mean of three independent experiments (± standard deviation)
Protocol: as §1

HL-60 cells = experiment: MTT cytotoxicity assay, HL-60 promyelocytic leukemia cells; type: cell-based, human; details: 3 days incubation, mean of three independent experiments (± standard deviation)
Protocol: as §1

[3] = MTT cytotoxicity assay, normal skin fibroblast strain AG01523; type: cell-based; details: AG01523 normal skin fibroblasts, normal human skin fibroblasts, 3 days incubation, mean of three independent experiments (± standard deviation)
Protocol: as §1

AG01523 fibroblasts = experiment: as above; type: cell-based; details: normal human skin fibroblasts, 3 days incubation, mean of three independent experiments (± standard deviation)
Protocol: as §1

SMILES	melting point	IC50 (HT-1080 cells [1]; Homo sapiens, HT-1080, 72 h)	Cell cycle phase distribution (HT-1080 cells [2])	IC50 K-562 cytotoxicity (K-562 cells)	IC50 (K-562 cells; Homo sapiens, K562, 72 h)	IC50 HL-60 cytotoxicity (HL-60 cells)	IC50 (HL-60 cells; Homo sapiens, HL-60, 72 h)	IC50 at 3 days [3]	IC50 (K-562 cells)	IC50 (HL-60 cells)	IC50 (HT-1080 cells [1])	IC50 (AG01523 fibroblasts)
COc1ccc(-n2c(COc3ccc(C=C4SC(=S)NC4=O)cc3)nc3ccccc3c2=O)cc1 [Compound 40, 5-{4-[(3-(4-Methoxyphenyl)-4-oxo-3,4-dihydroquinazolin-2-yl)methoxy]benzylidene}-2-thioxothiazolidin-4-one]	190 to 192 °C (dec.)	36.4 µM										
COc1cc(C=C2SC(=S)NC2=O)ccc1OCc1nc2ccccc2c(=O)n1-c1ccc(F)cc1 [Compound 42, 5-{4-[(3-(4-Fluorophenyl)-4-oxo-3,4-dihydroquinazolin-2-yl)methoxy]-3-methoxybenzylidene}-2-thioxothiazolidin-4-one]	163 to 166 °C	35.8 µM										
COc1cc(C=C2SC(=S)NC2=O)ccc1OCc1nc2ccccc2c(=O)n1-c1ccc(Cl)cc1 [Compound 43, 5-{4-[(3-(4-Chlorophenyl)-4-oxo-3,4-dihydroquinazolin-2-yl)methoxy]-3-methoxybenzylidene}-2-thioxothiazolidin-4-one]		10.2 µM	S-phase arrest	low micromolar range	4.5 µM	low micromolar range	5.1 µM	> 100 µM				
COc1cc(C=C2SC(=S)NC2=O)ccc1OCc1nc2ccccc2c(=O)n1-c1cccc(Cl)c1 [Compound 44, 5-{4-[(3-(3-Chlorophenyl)-4-oxo-3,4-dihydroquinazolin-2-yl)methoxy]-3-methoxybenzylidene]-2-thioxothiazolidin-4-one]	147 to 150 °C	28.4 µM										
COc1cc(C=C2SC(=S)NC2=O)ccc1OCc1nc2ccccc2c(=O)n1-c1ccc(Br)cc1 [Compound 45, 5-{4-[(3-(4-Bromophenyl)-4-oxo-3,4-dihydroquinazolin-2-yl)methoxy]-3-methoxybenzylidene}-2-thioxothiazolidin-4-one]		8.7 µM	S-phase arrest	low micromolar range	1.5 µM	low micromolar range	1.2 µM	> 100 µM				
COc1cc(C=C2SC(=S)NC2=O)ccc1OCc1nc2ccccc2c(=O)n1-c1ccc(C(F)(F)F)cc1 [Compound 47]				low micromolar range		low micromolar range			5.1 µM	2.6 µM	15.8 µM	> 100 µM
COc1cccc2c1C(=O)c1c(O)c3c(c(O)c1C2=O)C[C@@](O)(C(=O)CO)C[C@@H]3O[C@H]1C[C@H](N)[C@H](O)[C@H](C)O1 [Doxorubicin, reference compound]		0.012 µM			0.212 µM		0.011 µM	0.875 µM				
